Among the data in US20250051356A1, “RIFABUTIN ANALOGS FOR THE TREATMENT OF DISEASE” (priority 2021, published 2025) are MIC values, retold here.

Common to all, as to assay type: cell-based
Experiment [1] relates to M. xenopi (ATCC 19250). The experiment can be described thus: MIC against M. xenopi in CAMHB + ADC. The note with it: Mycobacterium xenopi.
In experiment [2] the test system is M. kansasii (ATCC 12478). Description: MIC against M. kansasii in CAMHB + ADC. As to conditions: Mycobacterium kansasii.
Experiment [3] deals with M. avium (ATCC 25291). The experiment can be described thus: MIC against M. avium in CAMHB + ADC. As to conditions: Mycobacterium avium.
Experiment [4] relates to A. baumannii (HUMC1 strain). The experiment can be described thus: MIC by broth microdilution against A. baumannii in RPMI + 10% FCS. The note with it: Acinetobacter baumannii, read-out: MIC A. baumannii. On the technique in general: Dilution methods test growth across graded concentrations, often in twofold steps.
For experiment [5], the system named is S. aureus (UAMS-1625 strain). The experiment can be described thus: MIC by broth microdilution against S. aureus. As to conditions: Staphylococcus aureus, read-out: MIC S. aureus.
Experiment [6] relates to M. abscessus subsp. abscessus ATCC 19977. Description: MIC against M. abscessus in Middlebrook 7H9 + ADC. As to conditions: Mycobacteroides abscessus.
[7] abbreviates: ATCC19250, ATCC 19250, CAMHB + ADC (5%), read-out: MIC M. xenopi.
Setting [8] is: ATCC12478, ATCC 12478, CAMHB + ADC (5%), read-out: MIC M. kansasii.
[9] abbreviates: ATCC25291, ATCC 25291, CAMHB + ADC (5%), read-out: MIC M. avium.
[10] abbreviates: ATCC19977, ATCC 19977, 7H9 + ADC, read-out: MIC M. abscessus.
Where [11] appears, read: ATCC19250, read-out: MIC M. xenopi.
[12] abbreviates: ATCC12478, read-out: MIC M. kansasii.
Where [13] appears, read: ATCC25291, read-out: MIC M. avium.
Setting [14] is: ATCC19977, read-out: MIC M. abscessus.

Converted amounts (≈) assume the structure as drawn. Like-named read-outs stand apart in the source and are kept apart here.

What is called MIC is the lowest concentration found to suppress growth. `CO[C@H]1/C=C/O[C@@]2(C)Oc3c(C)c(O)c4c(c3C2=O)C2=NC3(CCN(CC(C)C)CC3)NC2=C(NC(=O)/C(C)=C\C=C\[C@H](C)[C@H](O)[C@@H](C)[C@@H](O)[C@@H](C)[C@H](OC(=O)CC(=O)N2CCN(c3ccccc3)CC2)[C@@H]1C)C4=O` [Compound 11]: the MIC in experiment [1] (setting [7]) worked out at 0.06 µg/mL; in experiment [2] (setting [8]) it was 0.008 µg/mL; in experiment [3] (setting [9]) it was 0.125 µg/mL; in experiment [4] (HUMC1 strain, RPMI + 10% FCS), 0.016 µg/mL; in experiment [5], 0.25 µg/mL (≈ 0.241 µM); in experiment [6] (setting [10]), 0.125 µg/mL.

`CO[C@H]1/C=C/O[C@@]2(C)Oc3c(C)c(O)c4c(c3C2=O)C2=NC3(CCN(CC(C)C)CC3)NC2=C(NC(=O)/C(C)=C\C=C\[C@H](C)[C@H](O)[C@@H](C)[C@@H](O)[C@@H](C)[C@H](OC(=O)CC(=O)N2CCC(N(C)c3ccccc3)CC2)[C@@H]1C)C4=O` [Compound 14]: the MIC in experiment [1] (setting [7]) came out at 0.03 µg/mL; in experiment [2] (setting [8]), 0.002 µg/mL; in experiment [3] (setting [9]), 0.06 µg/mL; in experiment [4] (HUMC1 strain, RPMI + 10% FCS), 0.06 µg/mL; in experiment [5], 0.5 µg/mL (≈ 0.47 µM); in experiment [6] (setting [10]), 0.125 µg/mL.

For the compound `CO[C@H]1/C=C/O[C@@]2(C)Oc3c(C)c(O)c4c(c3C2=O)C2=NC3(CCN(CC(C)C)CC3)NC2=C(NC(=O)/C(C)=C\C=C\[C@H](C)[C@H](O)[C@@H](C)[C@@H](O)[C@@H](C)[C@H](OC(=O)C(C)C(=O)N2CCC(N(C)c3ccccc3)CC2)[C@@H]1C)C4=O` (stereo partly drawn) [Compound 40], the MIC in experiment [1] (setting [7]) was 0.03 µg/mL; in experiment [2] (setting [8]), 0.001 µg/mL; in experiment [3] (setting [9]), 0.06 µg/mL; in experiment [4] (HUMC1 strain, RPMI + 10% FCS), 0.03 µg/mL; in experiment [5], 0.5 µg/mL (≈ 0.464 µM); in experiment [6] (setting [10]) it was 0.125 µg/mL.

With `CO[C@H]1/C=C/O[C@@]2(C)Oc3c(C)c(O)c4c(c3C2=O)C2=NC3(CCN(CC(C)C)CC3)NC2=C(NC(=O)/C(C)=C\C=C\[C@H](C)[C@H](O)[C@@H](C)[C@@H](O)[C@@H](C)[C@H](OC(=O)CC(=O)N2CCC(Nc3ccccc3)CC2)[C@@H]1C)C4=O` [Compound 44], the MIC amounted to 0.03 µg/mL in experiment [1] (setting [11]); 0.004 µg/mL in experiment [2] (setting [12]); 0.06 µg/mL in experiment [3] (setting [13]); 0.008 µg/mL in experiment [4]; 0.25 µg/mL (≈ 0.238 µM) in experiment [5]; 0.25 µg/mL in experiment [6] (setting [14]).

As for `CO[C@H]1/C=C/O[C@@]2(C)Oc3c(C)c(O)c4c(c3C2=O)C2=NC3(CCN(CC(C)C)CC3)NC2=C(NC(=O)/C(C)=C\C=C\[C@H](C)[C@H](O)[C@@H](C)[C@@H](O)[C@@H](C)[C@H](OC(=O)CC(=O)N2CCC(n3nnc5cc(C(F)(F)F)ccc53)CC2)[C@@H]1C)C4=O` [Compound 49], the MIC in experiment [1] (setting [7]) was 0.03 µg/mL; in experiment [2] (setting [8]) it was 0.008 µg/mL; in experiment [3] (setting [9]), 0.06 µg/mL; in experiment [4] (HUMC1 strain, RPMI + 10% FCS) it was 0.25 µg/mL; in experiment [5] it was 1 µg/mL (≈ 0.875 µM); in experiment [6] (setting [10]), 0.25 µg/mL.

Take `CO[C@H]1/C=C/O[C@@]2(C)Oc3c(C)c(O)c4c(c3C2=O)C2=NC3(CCN(CC(C)C)CC3)NC2=C(NC(=O)/C(C)=C\C=C\[C@H](C)[C@H](O)[C@@H](C)[C@@H](O)[C@@H](C)[C@H](OC(=O)CC(=O)N2CCC(Cc3ccccc3)CC2)[C@@H]1C)C4=O` [Compound 50]: the MIC in experiment [1] (setting [11]) came to 0.03 µg/mL; in experiment [2] (setting [12]), 0.004 µg/mL; in experiment [3] (setting [13]) it was 0.06 µg/mL; in experiment [4] it was 0.06 µg/mL; in experiment [5], 2 µg/mL (≈ 1.91 µM); in experiment [6] (setting [14]) it was 0.125 µg/mL.

As for `CO[C@H]1/C=C/O[C@@]2(C)Oc3c(C)c(O)c4c(c3C2=O)C2=NC3(CCN(CC(C)C)CC3)NC2=C(NC(=O)/C(C)=C\C=C\[C@H](C)[C@H](O)[C@@H](C)[C@@H](O)[C@@H](C)[C@H](OC(=O)CC(=O)N2CCC3(CC2)Cc2ccccc2C3)[C@@H]1C)C4=O` [Compound 52], the MIC in experiment [1] (setting [7]) worked out at 0.03 µg/mL; in experiment [2] (setting [8]), 0.002 µg/mL; in experiment [3] (setting [9]), 0.03 µg/mL; in experiment [4] (HUMC1 strain, RPMI + 10% FCS) it was 0.016 µg/mL; in experiment [5], 0.5 µg/mL (≈ 0.472 µM); in experiment [6] (setting [10]), 0.125 µg/mL.

Consider `CO[C@H]1/C=C/O[C@@]2(C)Oc3c(C)c(O)c4c(c3C2=O)C2=NC3(CCN(CC(C)C)CC3)NC2=C(NC(=O)/C(C)=C\C=C\[C@H](C)[C@H](O)[C@@H](C)[C@@H](O)[C@@H](C)[C@H](OC(=O)CC(=O)N2CCC(O)(Cc3ccccc3)CC2)[C@@H]1C)C4=O` [Compound 54], for which the MIC came out at 0.125 µg/mL in experiment [1] (setting [11]); 0.008 µg/mL in experiment [2] (setting [8]); 0.06 µg/mL in experiment [3] (setting [9]); 0.008 µg/mL in experiment [4] (HUMC1 strain, RPMI + 10% FCS); 0.125 µg/mL (≈ 0.117 µM) in experiment [5]; 0.25 µg/mL in experiment [6] (setting [10]).

Turning to `CO[C@H]1/C=C/O[C@@]2(C)Oc3c(C)c(O)c4c(c3C2=O)C2=NC3(CCN(CC(C)C)CC3)NC2=C(NC(=O)/C(C)=C\C=C\[C@H](C)[C@H](O)[C@@H](C)[C@@H](O)[C@@H](C)[C@H](OC(=O)CC(=O)N2CCC(C(=O)c3ccccc3)CC2)[C@@H]1C)C4=O` [Compound 55], the MIC amounted to 0.06 µg/mL in experiment [1] (setting [7]); 0.016 µg/mL in experiment [2] (setting [8]); 1 µg/mL in experiment [3] (setting [9]); 0.016 µg/mL in experiment [4] (HUMC1 strain, RPMI + 10% FCS); 0.5 µg/mL (≈ 0.471 µM) in experiment [5]; 0.25 µg/mL in experiment [6] (setting [10]).
